# Measured values taken from patent US20050266088A1, “Formulation for fast dissolution of lipophilic compounds” (Rijksuniversiteit Groningen, priority 2002, published 2005).
# Experiment: Dissolution experiments on tablets (Prolabo dissolution apparatus)
# Type: physicochemical
# Conditions: for dissolution rate of the sugar matrix (Anthrone assay): tablets with diazepam, water, 37° C., 100 rpm
# Procedure: After compaction the tablets were weighed and subsequently submitted to dissolution experiments.
# Dissolution was performed on a Prolabo dissolution apparatus, Rowa Techniek B.V. All experiments were conducted at 37° C. in 1000 mL under constant stirring with 100 rpm. Tablets prepared from physical mixtures and solid dispersions were analysed in triplicate.
# To determine the sugar concentrations the Anthrone assay was used. (Scott et al. 1953) Samples were taken at appropriate intervals during the dissolution. […] Due to the enthalpy of mixing, the sample was heated to its boiling point. The boiling mixture was then cooled to room temperature. After 45 minutes the sample was vortexed and […] of sample was analysed in the plate reader at 630 nm. […] In every Anthrone assay a calibration curve of the appropriate sugar in the appropriate medium was established.
SMILES,dissolution rate of the sugar matrix (Anthrone assay),release of drug from physical mixture tablets,release of drug from solid dispersion tablets
OC[C@H]1O[C@H](O[C@H]2O[C@H](CO)[C@@H](O)[C@H](O)[C@H]2O)[C@H](O)[C@@H](O)[C@@H]1O [trehalose],dissolve faster compared to the inulins,–,–
"CN1C(=O)CN=C(c2ccccc2)c2cc(Cl)ccc21 [diazepam, Diazepam]",–,fast compared to the solid dispersions,fast release
OC[C@H]1O[C@@](CO)(O[C@H]2O[C@H](CO)[C@@H](O)[C@H](O)[C@H]2O)[C@@H](O)[C@@H]1O [sucrose],dissolve faster compared to the inulins,–,–
